Measured values reported in PubChem BioAssay (NCI).
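A five-concentration, 48-hour dose response in 96-well plates underlies each endpoint, interpolated linearly between surrounding concentrations. At the GI50, growth is halved. At the TGI there is no net growth.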

How the values were obtained:
Assay in all cases: DTP human tumour cell line panel, 48 h
[1] = tested on: HT29 colon
[2] = tested on: EKVX NSCLC
[3] = tested on: SK-MEL-2 melanoma
[4] = tested on: SF-268 CNS
[5] = tested on: HCT-116 colon
[6] = tested on: BT-549 breast
[7] = tested on: K-562 leukemia
[8] = tested on: SK-MEL-28 melanoma
[9] = tested on: IGROV1 ovarian
[10] = tested on: SNB-75 CNS
[11] = tested on: OVCAR-3 ovarian
[12] = tested on: MDA-MB-231 breast
[13] = tested on: SK-OV-3 ovarian
[14] = tested on: UACC-62 melanoma
[15] = tested on: MCF7 breast
[16] = tested on: SR leukemia
[17] = tested on: MOLT-4 leukemia
[18] = tested on: ACHN renal
[19] = tested on: M14 melanoma
[20] = tested on: HS 578T breast
[21] = tested on: HCC-2998 colon
[22] = tested on: SF-539 CNS
[23] = tested on: 786-0 renal
[24] = tested on: LOX IMVI melanoma
[25] = tested on: U251 CNS
[26] = tested on: HOP-92 NSCLC
[27] = tested on: NCI-H460 lung
[28] = tested on: DU-145 prostate
[29] = tested on: MALME-3M melanoma
[30] = tested on: UO-31 renal
[31] = tested on: MDA-MB-435
[32] = tested on: RXF 393 renal
[33] = tested on: HL-60(TB) leukemia
[34] = tested on: A549 NSCLC
[35] = tested on: HCT-15 colon
[36] = tested on: PC-3 prostate
[37] = tested on: CCRF-CEM leukemia
[38] = tested on: HOP-62 NSCLC
[39] = tested on: SF-295 CNS
[40] = tested on: UACC-257 melanoma
[41] = tested on: OVCAR-5 ovarian
[42] = tested on: SW-620 colon
[43] = tested on: NCI-H226 lung
[44] = tested on: SNB-19 CNS
[45] = tested on: RPMI-8226 leukemia
[46] = tested on: TK-10 renal
[47] = tested on: NCI/ADR-RES ovarian
[48] = tested on: NCI-H23 lung
[49] = tested on: SN12C renal
[50] = tested on: A498 renal
[51] = tested on: CAKI-1 renal
[52] = tested on: SK-MEL-5 melanoma
[53] = tested on: T-47D breast
[54] = tested on: NCI-H522 lung
[55] = tested on: KM12 colon
[56] = tested on: OVCAR-4 ovarian
[57] = tested on: OVCAR-8 ovarian
[58] = tested on: COLO 205 colon

`N#CN1CCC[C@H]1C(=O)N1CCc2c(-c3[nH]nc4ncccc34)cccc21` was tested, and the GI50 [1] was < 10 nM, the TGI [1] was 12.9 nM and the GI50 [2] was 101 nM. For the same molecule, the TGI [2] was 25000 nM, the GI50 [3] was < 10 nM and the TGI [3] was 18200 nM. For the same molecule, the GI50 [4] was < 10 nM, the TGI [4] was 13200 nM and the GI50 [5] was < 10 nM. The TGI [5] was 8140 nM, the GI50 [6] was < 10 nM and the TGI [6] was 99.3 nM. For the same molecule, the GI50 [7] was < 10 nM, the TGI [7] was > 37800 nM and the GI50 [8] was < 10 nM. For the same molecule, the TGI [8] was 13900 nM, the GI50 [9] was 86.2 nM and the TGI [9] was 12600 nM. For the same molecule, the GI50 [10] was 211 nM, the TGI [10] was 2780 nM and the GI50 [11] was < 10 nM. The TGI [11] was < 10 nM, the GI50 [12] was < 10 nM and the TGI [12] was 177 nM. For the same molecule, the GI50 [13] was 13 nM, the TGI [13] was 69.4 nM and the GI50 [14] was < 10 nM. For the same molecule, the TGI [14] was 12200 nM, the GI50 [15] was < 10 nM and the TGI [15] was 11000 nM. The GI50 [16] was < 10 nM, the TGI [16] was 20000 nM and the GI50 [17] was < 10 nM. The TGI [17] was 11000 nM, the GI50 [18] was < 10 nM and the TGI [18] was 7890 nM. For the same molecule, the GI50 [19] was < 10 nM, the TGI [19] was 354 nM and the GI50 [20] was 239 nM. The TGI [20] was > 100000 nM, the GI50 [21] was 120 nM and the TGI [21] was 11600 nM. For the same molecule, the GI50 [22] was < 10 nM, the TGI [22] was < 10 nM and the GI50 [23] was < 10 nM. The TGI [23] was 11500 nM, the GI50 [24] was < 10 nM and the TGI [24] was 10600 nM. The GI50 [25] was 281 nM, the TGI [25] was 2910 nM and the GI50 [26] was < 10 nM. For the same molecule, the TGI [26] was 80.9 nM, the GI50 [27] was 105 nM and the TGI [27] was 11100 nM. It also gave a GI50 [28] of 18 nM, a TGI [28] of 11300 nM and a GI50 [29] of 27.9 nM. It also gave a TGI [29] of 16700 nM, a GI50 [30] of 43.1 nM and a TGI [30] of 5110 nM. For the same molecule, the GI50 [31] was < 10 nM, the TGI [31] was < 10 nM and the GI50 [32] was < 10 nM. The TGI [32] was 145 nM, the GI50 [33] was < 10 nM and the TGI [33] was < 10 nM. The GI50 [34] was 106 nM, the TGI [34] was > 25100 nM and the GI50 [35] was < 10 nM. The TGI [35] was 11300 nM, the GI50 [36] was < 10 nM and the TGI [36] was 23600 nM. For the same molecule, the GI50 [37] was < 10 nM, the TGI [37] was 28400 nM and the GI50 [38] was 22.2 nM. The TGI [38] was 10600 nM, the GI50 [39] was 281 nM and the TGI [39] was 4410 nM. The GI50 [40] was < 10 nM, the TGI [40] was 14500 nM and the GI50 [41] was < 15.6 nM. For the same molecule, the TGI [41] was 17400 nM, the GI50 [42] was < 10 nM and the TGI [42] was 13500 nM. The GI50 [43] was 51 nM, the TGI [43] was 219 nM and the GI50 [44] was 157 nM. For the same molecule, the TGI [44] was 21500 nM, the GI50 [45] was < 10 nM and the TGI [45] was 7470 nM. It also gave a GI50 [46] of 525 nM, a TGI [46] of 4170 nM and a GI50 [47] of 10.3 nM. For the same molecule, the TGI [47] was > 31700 nM, the GI50 [48] was < 10 nM and the TGI [48] was 17300 nM. For the same molecule, the GI50 [49] was < 10 nM, the TGI [49] was 48200 nM and the GI50 [50] was < 11.4 nM. The TGI [50] was 148 nM, the GI50 [51] was < 10 nM and the TGI [51] was 1460 nM. For the same molecule, the GI50 [52] was 60.6 nM, the TGI [52] was 126 nM and the GI50 [53] was 22.7 nM. For the same molecule, the TGI [53] was 15000 nM, the GI50 [54] was < 10 nM and the TGI [54] was 412 nM. For the same molecule, the GI50 [55] was < 10 nM, the TGI [55] was 10100 nM and the GI50 [56] was < 10 nM. For the same molecule, the TGI [56] was 13300 nM, the GI50 [57] was < 10 nM and the TGI [57] was 11000 nM.
`CCCCN(CCCC)CCCN=c1nc2c(c(N)n1-c1ccccc1)c(=S)n(-c1ccccc1)c(=S)n2-c1ccccc1` was tested, and the GI50 [1] was 276 nM, the TGI [1] was 784 nM and the GI50 [2] was 840 nM. The TGI [2] was 2690 nM, the GI50 [3] was 1740 nM and the TGI [3] was 3470 nM. For the same molecule, the GI50 [4] was 1140 nM, the TGI [4] was 2470 nM and the GI50 [5] was 412 nM. It also gave a TGI [5] of 1500 nM, a GI50 [6] of 1670 nM and a TGI [6] of 3380 nM. The GI50 [7] was 540 nM, the TGI [7] was > 100000 nM and the GI50 [8] was 173 nM. The TGI [8] was 338 nM, the GI50 [9] was 1900 nM and the TGI [9] was 3790 nM. It also gave a GI50 [10] of 719 nM, a TGI [10] of 2110 nM and a GI50 [11] of 997 nM. The TGI [11] was 2300 nM, the GI50 [12] was 555 nM and the TGI [12] was 1530 nM. The GI50 [13] was 1550 nM, the TGI [13] was 3040 nM and the GI50 [14] was 714 nM. It also gave a TGI [14] of 2020 nM, a GI50 [15] of 361 nM and a TGI [15] of 1510 nM. For the same molecule, the GI50 [16] was 273 nM, the TGI [16] was 1460 nM and the GI50 [17] was 141 nM. The TGI [17] was > 34100 nM, the GI50 [18] was 567 nM and the TGI [18] was 1800 nM. For the same molecule, the GI50 [19] was 206 nM, the TGI [19] was 424 nM and the GI50 [58] was 329 nM. It also gave a TGI [58] of 1390 nM, a GI50 [20] of 780 nM and a TGI [20] of 3160 nM. The GI50 [21] was 825 nM, the TGI [21] was 2520 nM and the GI50 [22] was 1360 nM. It also gave a TGI [22] of 2840 nM, a GI50 [23] of 501 nM and a TGI [23] of 1080 nM. The GI50 [24] was 303 nM, the TGI [24] was 773 nM and the GI50 [25] was 340 nM. For the same molecule, the TGI [25] was 1270 nM, the GI50 [26] was 229 nM and the TGI [26] was 830 nM. It also gave a GI50 [27] of 483 nM, a TGI [27] of 1710 nM and a GI50 [28] of 1340 nM. It also gave a TGI [28] of 2750 nM, a GI50 [29] of 604 nM and a TGI [29] of 1310 nM. It also gave a GI50 [30] of 389 nM, a TGI [30] of 1020 nM and a GI50 [31] of 301 nM. It also gave a TGI [31] of 930 nM, a GI50 [32] of 1960 nM and a TGI [32] of 4750 nM. The GI50 [33] was 211 nM, the TGI [33] was > 100000 nM and the GI50 [34] was 1460 nM. For the same molecule, the TGI [34] was 3480 nM, the GI50 [35] was 309 nM and the TGI [35] was 1140 nM. It also gave a GI50 [36] of 590 nM, a TGI [36] of 1940 nM and a GI50 [37] of 215 nM. The GI50 [38] was 1450 nM, the TGI [38] was 3030 nM and the GI50 [39] was 1400 nM. The TGI [39] was 3000 nM, the GI50 [40] was 609 nM and the TGI [40] was 1270 nM. The GI50 [41] was 1670 nM, the TGI [41] was 3240 nM and the GI50 [42] was 568 nM. The TGI [42] was 2620 nM, the GI50 [43] was 1610 nM and the TGI [43] was 3110 nM. The GI50 [44] was 1290 nM, the TGI [44] was 2740 nM and the GI50 [45] was 159 nM. It also gave a TGI [45] of 327 nM, a GI50 [46] of 1280 nM and a TGI [46] of 2690 nM. It also gave a GI50 [47] of 2090 nM, a TGI [47] of 4120 nM and a GI50 [48] of 1880 nM. For the same molecule, the TGI [48] was 3970 nM, the GI50 [49] was 1410 nM and the TGI [49] was 2790 nM. It also gave a GI50 [50] of 1060 nM, a TGI [50] of 2390 nM and a GI50 [51] of 384 nM. For the same molecule, the TGI [51] was 1490 nM, the GI50 [52] was 1020 nM and the TGI [52] was 2300 nM. The GI50 [53] was 1730 nM, the TGI [53] was 3790 nM and the GI50 [54] was 664 nM. It also gave a TGI [54] of 2230 nM, a GI50 [55] of 415 nM and a TGI [55] of 1460 nM. It also gave a GI50 [56] of 994 nM and a TGI [56] of 2460 nM.
